Experimental data published in patent US11034913B2, “Metal working fluid” (Henkel AG & Co. KGaA, priority 2015, dated 2021).

Key:
Assay type in all cases: cell-based
[1] = tested on: mixed Gram-negative bacteria; test: Minimum inhibitory concentration testing (biostat candidate screening, Phase 1 and Phase 2; dip slide counts)
[2] = tested on: Mixed Gram Negative Bacteria; test: Mycobacterium challenge, four-week re-inoculation test: mixed Gram-negative bacteria count; conditions: 5 w/w % dilution
Method: (§1) A tap water dilution of the metal working fluid for the Mycobacterium challenge was made to a concentration of 5 w/w %. The sample was tested by Biosan Laboratories, in Warren, Mich., USA, an independent commercial biological laboratory, for biostatic activity against Mycobacterium and against mixed Gram-negative bacteria.
(§2) The test method evaluated the effectiveness of antimicrobial agents in controlling Mycobacterium immunogenum in the presence of high background population of Gram-negative and other bacteria responsible for metal working fluid deterioration. Sample metal working fluids including the biostat of Example 5 and antimicrobial agents were prepared at use concentrations. 1% iron chips were added to the diluted metal working fluid samples. Two microbial populations were then introduced at a 1% level: an undefined Gram-negative bacterial inoculum isolated from a contaminated metal working fluid, and an inoculum containing Mycobacterium immunogenum. The inoculated test metal working fluids were incubated at room temperature (22+2° C.) on an orbital shaker for four weeks. During the four week test period, the metal working fluids were evaluated twice weekly for bacterial and mycobacterial contamination before being re-inoculated with both microbial suspensions at 1% concentrations. This re-inoculation method ensured sufficient viable Gram-negative and Mycobacterium levels throughout the test.

[3] = tested on: Mycobacterium immunogenum; test: Mycobacterium challenge, four-week re-inoculation test: Mycobacterium count; conditions: 5 w/w % dilution
Method: as §1, §2

[4] = Phase 1, log bacterial counts at 24 and 48 h versus DCHA standard, scale 0-6, 3 = matches DCHA standard, higher = better
[5] = Sample 1, Day 0 (Initial Inoculum)
[6] = Sample 2, Day 0 (Initial Inoculum)

SMILES: CC(CN)CCCN (stereo not shown) [Example 5, Methylpentamethylene diamine]
- Differential Value Scores, Average ([1]; Phase 1, average of Rounds 1-3, scale 0-6, 3 = matches DCHA standard): 3.3
- Differential Value Scores, Round 1 [1, 4]: 2.5
- Differential Value Scores, Round 2 [1, 4]: 4.5
- Differential Value Scores, Round 3 [1, 4]: 3
- Biostatic efficacy regarding Gram-negative bacteria compared with the DCHA standard ([1]; result in words, 3 wt. % amine in metal working fluid): outperformed DCHA
- Mixed Gram Negative Bacteria count [2, 5]: ~1 × 10^6 cfu/ml
- Mixed Gram Negative Bacteria count ([2]; Sample 1, Day 2): <2 cfu/ml
- Mixed Gram Negative Bacteria count ([2]; Sample 1, Day 7): <2 cfu/ml
- Mixed Gram Negative Bacteria count ([2]; Sample 1, Day 9): <2 cfu/ml
- Mixed Gram Negative Bacteria count ([2]; Sample 1, Day 14): <2 cfu/ml
- Mixed Gram Negative Bacteria count ([2]; Sample 1, Day 16): <2 cfu/ml
- Mixed Gram Negative Bacteria count ([2]; Sample 1, Day 21): <2 cfu/ml
- Mixed Gram Negative Bacteria count ([2]; Sample 1, Day 23): <2 cfu/ml
- Mixed Gram Negative Bacteria count [2, 6]: ~1 × 10^6 cfu/ml
- Mixed Gram Negative Bacteria count ([2]; Sample 2, Day 2): <2 cfu/ml
- Mixed Gram Negative Bacteria count ([2]; Sample 2, Day 7): <2 cfu/ml
- Mixed Gram Negative Bacteria count ([2]; Sample 2, Day 9): <2 cfu/ml
- Mixed Gram Negative Bacteria count ([2]; Sample 2, Day 14): <2 cfu/ml
- Mixed Gram Negative Bacteria count ([2]; Sample 2, Day 16): <2 cfu/ml
- Mixed Gram Negative Bacteria count ([2]; Sample 2, Day 21): <2 cfu/ml
- Mixed Gram Negative Bacteria count ([2]; Sample 2, Day 23): <2 cfu/ml
- Mycobacterium immunogenum count [3, 5]: ~1 × 10^5 cfu/ml
- Mycobacterium immunogenum count ([3]; Sample 1, Day 2): <2 cfu/ml
- Mycobacterium immunogenum count ([3]; Sample 1, Day 7): <2 cfu/ml
- Mycobacterium immunogenum count ([3]; Sample 1, Day 9): <2 cfu/ml
- Mycobacterium immunogenum count ([3]; Sample 1, Day 14): <2 cfu/ml
- Mycobacterium immunogenum count ([3]; Sample 1, Day 16): <2 cfu/ml
- Mycobacterium immunogenum count ([3]; Sample 1, Day 21): <2 cfu/ml
- Mycobacterium immunogenum count ([3]; Sample 1, Day 23): <2 cfu/ml
- Mycobacterium immunogenum count [3, 6]: ~1 × 10^5 cfu/ml
- Mycobacterium immunogenum count ([3]; Sample 2, Day 2): <2 cfu/ml
- Mycobacterium immunogenum count ([3]; Sample 2, Day 7): <2 cfu/ml
- Mycobacterium immunogenum count ([3]; Sample 2, Day 9): <2 cfu/ml
- Mycobacterium immunogenum count ([3]; Sample 2, Day 14): <2 cfu/ml
- Mycobacterium immunogenum count ([3]; Sample 2, Day 16): <2 cfu/ml
- Mycobacterium immunogenum count ([3]; Sample 2, Day 21): <2 cfu/ml
- Mycobacterium immunogenum count ([3]; Sample 2, Day 23): <2 cfu/ml
